Laboratory results taken from patent US9566344B2, “Dasatinib and nonlinear configuration polyethylene glycol conjugate” (priority 2013, dated 2017).
Several values for one entry are separate records, joined by “and”; a condition that tells them apart may be missing. Equal entries are not always repeated.

Key:
[1] = system: PC-3 human prostate cancer subcutaneous xenograft; experiment: Pharmacodynamics in subcutaneous tumor model of PC-3 human prostate cancer; type: in vivo, Balb/c nude mice; conditions: PC-3 xenograft; for T/C (%) relative tumor proliferation rate / Relative tumor volume (x ± SE) / Tumor volume (x ± SE) / Effect on tumor growth compared with the solvent control group (in words): 10 mg/kg; for Effect on tumor growth compared with the solvent control group (in words): p values less than 0.01; for Anti-tumor effect compared with dasatinib (in words): same dose 10 mg/kg, 25th day
Protocol: PC-3 cells were inoculated subcutaneously on the right back of Balb/c nude mice to establish human prostate cancer subcutaneous xenograft animal model. When the mean tumor volume reached 160 mm^3, the mice used in the experiment were divided into groups and there were 8 mice in each group, the mice were injected intravenously twice a week. The therapeutic efficiency was evaluated based on the relative tumor proliferation rate (T/C %).
PC-3 cell line was cultured in vitro in Ham's F12K medium supplemented with fetal bovine serum with a volume ratio of 10% and L-glutamine (2 mM) at 37 with the air containing CO2 with a proportion of 5%, the tumor cells were routinely passaged twice a week. The tumor cells in the exponential growth phase were collected and suspended in the mixture formed by PBS and matirgel with an equal volume, and then placed on ice for inoculation of tumor cells.
5×10^6 of PC-3 cells were inoculated subcutaneously on the right back of the mice used in the experiment, the tumor growth weas observed regularly, and stochastic grouping of the mice according to tumor size and body weight in mice and pharmacotherapy were carried out when the mean volume of the tumor reached 160 mm^3.
In this study all the operations related to operating, nursing and treatment were undertaken according to the handbook approved by Association for Assessment and Accreditation of Laboratory Animal Care (AAALAC). […] In everyday observation, the influence of tumor growth on normal animal behaviors (such as exercise, eating, drinking, change of weight, eyes, hair) and any other abnormalities were noticed. Death and clinical symptoms of animals in each group were recorded.
Throughout the experiment, the weight and tumor size of mice were measured twice a week. The computational formula of tumor size was as follows: tumor volume (mm^3)=0.5×(long diameter of tumor×short diameter of tumor^2). According to the tumor size in experimental groups and control group, RTV and T/C ratio were calculated. RTV is the relative tumor volume. T/C ratio is the percentage ratio of relative tumor volumes in the treatment groups and the control group at a time point after finish of treatment, and reflects the antitumor pharmacodynamic actions of the different treatment groups. When the experiment was finished, the tumors were recorded by photographs in the following two ways: 1. the animals in each group were euthanized by CO2, and the tumor-bearing sides were placed upwards and taken photographs for recording by group; 2. the tumors were removed and weighed first, and T/C values (percentage ratio of tumor weights in treatment groups and the control group) were calculated, and then tumors in each group were placed in order at the same time and taken photographs for recording.

[2] = system: K562 human chronic myeloid leukemia subcutaneous xenograft; experiment: Antitumor effect in subcutaneous tumor model of K562 human chronic myeloid leukemia; type: in vivo, NOD/SCID mice
Protocol: K562 cells were inoculated subcutaneously on the right back of NOD/SCID mice to establish human chronic myeloid leukemia subcutaneous xenograft animal model. When the mean tumor volume reached 130 mm^3, the mice used in the experiment were divided into groups and there were 8 mice in each group, then the mice were injected intravenously twice a week. The therapeutic efficiency was evaluated based on the relative tumor proliferation rate (T/C %).
K562 cell line was cultured in vitro in RPMI-1640 medium supplemented with fetal bovine serum with a volume ratio of 10% and L-glutamine (2 mM) at 37 with the air containing CO2 with a proportion of 5%. The tumor cells were routinely passaged twice a week. The tumor cells in the exponential growth phase were collected and suspended in the mixture formed by PBS and matirgel with an equal volume, and then placed on ice for inoculation of tumor cells.
5×10^6 of K562 cells were inoculated subcutaneously on the right back of the mice used in the experiment, the tumor growth was observed regularly, and stochastic grouping of the mice according to tumor size and body weight in mice and pharmacotherapy were carried out when the mean volume of the tumor reached 130 mm^3.
In this study all the operations related to operating, nursing and treatment were undertaken according to the handbook approved by Association for Assessment and Accreditation of Laboratory Animal Care (AAALAC). […] In everyday observation, the influence of tumor growth on animal normal behaviors (such as exercise, eating, drinking, change of weight, eyes, hair) and any other abnormalities were noticed. Death and clinical symptoms of animals in each group were recorded.
Throughout the experiment, the weight and tumor size of mice were measured twice a week. The computational formula of tumor size was as follows: tumor volume (mm^3)=0.5×(long diameter of tumor x short diameter of tumor^2). According to the tumor size in experimental groups and control group, RTV and T/C ratio were calculated. RTV is the relative tumor volume. T/C ratio is the percentage ratio of relative tumor volumes in the treatment group and the control group at a time point after finish of treatment, and reflects the antitumor pharmacodynamic actions of the different treatment groups.

[3] = 22nd day after grouping, compared with the solvent control group
[4] = 25th day after grouping, compared with the group using dasatinib
[5] = i.v. twice a week, 22nd day after grouping
[6] = i.v. twice a week, 25th day after grouping
[7] = injected intravenously twice a week, 22nd day after grouping
[8] = 5 mg/kg, 14th day after grouping, compared with the solvent control group
[9] = 5 mg/kg, 21st day after grouping, compared with the group using dasatinib
[10] = 5 mg/kg, i.v. twice a week, 14th day after grouping
[11] = 5 mg/kg, i.v. twice a week, 21st day after grouping
[12] = 5 mg/kg, i.v. twice a week, 21st day after grouping, 5 mg/kg
[13] = 5 mg/kg, injected intravenously twice a week, 14th day after grouping, 5 mg/kg
[14] = 5 mg/kg, p values less than 0.001
[15] = 5 mg/kg, 21st day after grouping, compared with the group using dasatinib, 5 mg/kg

Compound	T/C (%) relative tumor proliferation rate [1, 3]	T/C (%) relative tumor proliferation rate [1, 4]	Relative tumor volume (x ± SE) [1, 5]	Relative tumor volume (x ± SE) [1, 6]	Tumor volume (x ± SE) [1, 6]	Tumor volume (x ± SE) [1, 7]	Effect on tumor growth compared with the solvent control group (in words) [1]	Anti-tumor effect compared with dasatinib (in words) [1]	T/C (%) relative tumor proliferation rate [2, 8]	T/C (%) relative tumor proliferation rate [2, 9]	Relative tumor volume (x ± SE) [2, 10]	Relative tumor volume (x ± SE) [2, 11]	Tumor volume (x ± SE) [2, 12]	Tumor volume (x ± SE) [2, 13]	Effect on tumor growth compared with the solvent control group (in words) [2, 14]	Anti-tumor effect compared with dasatinib (in words) ([2]; same dose 5 mg/kg, 21st day)	T/C (%) relative tumor proliferation rate [2, 15]
^20k4arm -PEG-OCH2CH2ODS [DSN-1]	67%	79%	1053.2 ± 107.4	975.6 ± 103.5	1476 mm^3 and 1476 ± 118 mm^3	1649 mm^3 and 1649 ± 142 mm^3	statistically significant effect of anti-PC-3 tumor growth	more significant	14%	96%	254.6 ± 42.2	277.5 ± 32.2	375 mm^3 and 375 ± 89 mm^3	349 mm^3 and 349 ± 76 mm^3	statistically significant effect of anti-K562 tumor growth	no statistically significant differences	
^20k4arm -PEG-OCH2CH2OCOODS [DSN-3]	59%	70%	927.5 ± 96.3	864.7 ± 74.5	1307 mm^3 and 1307 ± 155 mm^3	1452 mm^3 and 1452 ± 139 mm^3	statistically significant effect of anti-PC-3 tumor growth	more significant	11.8%		215.4 ± 41.1	208 ± 37.6	281 mm^3 and 281 ± 56 mm^3	295 mm^3 and 295 ± 68 mm^3	statistically significant effect of anti-K562 tumor growth	more significant	42%
^20k4arm -PEG-OCH2COODS [DSN-2]	71%	88%	1116.1 ± 98.2	1087.1 ± 88.2	1644 mm^3 and 1644 ± 146 mm^3	1748 mm^3 and 1748 ± 146 mm^3	statistically significant effect of anti-PC-3 tumor growth	no statistically significant difference	16%	121%	282.1 ± 46.3	350.3 ± 71.9	462 mm^3 and 462 ± 114 mm^3	372 mm^3 and 372 ± 80 mm^3	statistically significant effect of anti-K562 tumor growth	no statistically significant differences	
^20k4arm-PEG-OCH2CH2NHCOODS [DSN-4]	48%	63%	754.6 ± 84.5	778.1 ± 82.4	1177 mm^3 and 1177 ± 120 mm^3	1182 mm^3 and 1182 ± 68 mm^3	statistically significant effect of anti-PC-3 tumor growth	more significant	8.5%		155.5 ± 28.5	161.8 ± 18.9	219 mm^3 and 219 ± 45 mm^3	210 mm^3 and 210 ± 47 mm^3	statistically significant effect of anti-K562 tumor growth	more significant	36%
Cc1nc(Nc2ncc(C(=O)Nc3c(C)cccc3Cl)s2)cc(N2CCN(CCO)CC2)n1 [dasatinib]	73%		1148.9 ± 112.7	1235.3 ± 119.6	1868 mm^3 and 1868 ± 76 mm^3	1752 mm^3 and 1752 ± 76 mm^3	statistically significant effect of anti-PC-3 tumor growth		12.4%		226.9 ± 30.0	289.1 ± 46.9	391 mm^3 and 391 ± 79 mm^3	311 mm^3 and 311 ± 55 mm^3	statistically significant effect of anti-K562 tumor growth		
